This is an account of results in patent publication US5852190A, “Diazepinoindoles as phosphodiesterase IV inhibitors” (Institut de Recherche Jouveinal SA, priority 1994, dated 1998).

One data set has as its target PDE IV. Kind of data set: PDE IV inhibition (partially purified enzyme) compared with rolipram. Format: biochemical. The following applies: enzyme preparation obtained from guinea-pig trachea; same enzyme preparation for rolipram and product. The method, then: The capacity of the compounds of formula (I) of the invention to inhibit cyclic nucleotide phosphodiesterases is evaluated by measuring their IC50 (concentration of inhibitor required to inhibit enzymatic activity by 50%). In the case of PDEs IV, this value is compared with the IC50 of rolipram, a specific inhibitor of PDE IV, by the ratio of the IC50 of rolipram to the IC50 of the product to be tested, in relation to the same enzyme preparation.
The different classes of phosphodiesterases are obtained in partially purified form on a DEAE-cellulose column from guinea-pig trachea and dog aorta according to a method adapted from that of W. J. Thompson et al., 1979, Advances in Cyclic Nucleotide Research, Vol. 10: 69-92, ed. G. Brooker et al., Raven Press, New York, and of P. J. Silver et al., 1988, Eur. J. Pharmacol. 150: 85-94.
Subsequently, the measurement of the enzymatic activity of the different classes of PDE, and in particular of the PDEs IV, is carried out according to a method which is likewise adapted from that of W. J. Thompson, ibidem.
For the determination of the IC50 the enzymatic activity is measured in the presence of the inhibitor in a range of concentrations from 0.1 to 100 μM.
The following table illustrates the PDE IV-inhibitory activity in comparison with that of rolipram for an enzyme preparation obtained from guinea-pig trachea.

Data set [1] can be described thus: subacute oral toxicity in the rat. Format: in vivo. The following applies: 100 mg/kg/day for two weeks, 1% aqueous suspension in methyl cellulose. From the text:
The subacute oral toxicity of Example 2V was studied in the rat.

For the next data set, the system named is inflammatory cells. The following applies: in vitro, rodents; cited from earlier work.
The conditions of data set [2]: cited from earlier work; for undesirable effects: in use.
The next data set has as its system phosphodiesterase. The settings on record: nonspecific inhibitor; cited from earlier work.

Consider `O=C(NC1N=C(c2ccccc2)c2cccc3c2N(CC3)C1=O)c1cn2ccccc2n1` (racemic) [Example 1B, (3R,S)-Imidazo[1,2-a]pyridine-2-carboxylic acid N-(4-oxo-1-phenyl-3,4,6,7-tetrahydro1,4]diazepino-[6,7,1-hi]indol-3-yl)amide], for which the “IC50 rolipram / IC50 example (PDE IV-inhibitory effect compared with rolipram)” value against PDE IV is 3.7.

For `O=C(N[C@@H]1N=C(c2ccccc2)c2cccc3c2N(CC3)C1=O)c1cccc(F)c1` [Example 2B, (3R)-3-Fluoro-N-(4-oxo-1-phenyl-3,4,6,7-tetrahydro[1,4]diazepino[6,7,1-hi]indol-3-yl)-benzamide], the “IC50 rolipram / IC50 example (PDE IV-inhibitory effect compared with rolipram)” value against PDE IV worked out at 1.2.

`O=C(N[C@@H]1N=C(c2ccccc2)c2cccc3c2N(CC3)C1=O)c1ccc(F)cc1` [Example 2C, (3R)-4-Fluoro-N-(4-oxo-1-phenyl-3,4,6,7-tetrahydro[1,4]diazepino[6,7,1-hi]indol-3-yl) -benzamide]: on PDE IV, the “IC50 rolipram / IC50 example (PDE IV-inhibitory effect compared with rolipram)” value was determined as 1.2.

Turning to `COc1cc(C(=O)N[C@@H]2N=C(c3ccccc3)c3cccc4c3N(CC4)C2=O)cc(OC)c1OC` [Example 2M, (3R)-3,4,5-Trimethoxy-N-(4-oxo-1-phenyl-3,4,6,7-tetrahydro[1,4]diazepino[6,7,1-hi]indol-3-yl)-benzamide], at PDE IV, the “IC50 rolipram / IC50 example (PDE IV-inhibitory effect compared with rolipram)” value amounted to 1.3.

Regarding `COc1ccc(Cl)cc1C(=O)N[C@@H]1N=C(c2ccccc2)c2cccc3c2N(CC3)C1=O` [Example 2N, (3R) -2-Methoxy-5-chloro-N-(4-oxo-1-phenyl-3,4,6,7-tetrahydro[1,4]diazepino[6,7,1-hi]indol-3-yl)-benzamide], at PDE IV, the “IC50 rolipram / IC50 example (PDE IV-inhibitory effect compared with rolipram)” value is recorded as 2.5.

As for `CC(=O)Nc1ccc(C(=O)N[C@@H]2N=C(c3ccccc3)c3cccc4c3N(CC4)C2=O)cc1` [Example 2O, (3R)-4-Acetamido-N-(4-oxo-1-phenyl-3,4,6,7-tetrahydro[1,4]diazepino[6,7,1-hi]indol-3-yl)-benzamide], at PDE IV, the “IC50 rolipram / IC50 example (PDE IV-inhibitory effect compared with rolipram)” value stood at 1.9.

As for `O=C(N[C@@H]1N=C(c2ccccc2)c2cccc3c2N(CC3)C1=O)c1ccccn1` [Example 2P, (3R)-Pyridine-2-carboxylic acid (4-oxo-1-phenyl-3,4,6,7-tetrahydro[1,4]diazepino[6,7,1-hi]indol-3-yl)amide], the “IC50 rolipram / IC50 example (PDE IV-inhibitory effect compared with rolipram)” value against PDE IV came to 1.5.

On to `O=C(N[C@@H]1N=C(c2ccccc2)c2cccc3c2N(CC3)C1=O)c1cnc2ccccc2c1` [Example 2S, (3R)-Quinoline-3-carboxylic acid (4-oxo-1-phenyl-3,4,6,7-tetrahydro[1,4]diazepino[6,7,1-hi]indol-3-yl)amide], for which, at PDE IV, the “IC50 rolipram / IC50 example (PDE IV-inhibitory effect compared with rolipram)” value worked out at 3.3.

With `O=C(N[C@@H]1N=C(c2ccccc2)c2cccc3c2N(CC3)C1=O)c1ccc2ncccc2c1` [Example 2T, (3R)-Quinoline-6-carboxylic acid (4-oxo-1-phenyl-3,4,6,7-tetrahydro[1,4]diaze-ino[6,7,1-hi]indol-3-yl)amide], on PDE IV, the “IC50 rolipram / IC50 example (PDE IV-inhibitory effect compared with rolipram)” value was 2.0.

As to `O=C(N[C@@H]1N=C(c2ccccc2)c2cccc3c2N(CC3)C1=O)c1cc2ccccc2cn1` [Example 2V, (3R)-Isocuinoline-3-carboxylic acid (4-oxo-1-phenyl-3,4,6,7-tetrahdro[1,4]diazerino[6,7,1-hi]indol-3-yl)amide], the subacute oral toxicity result in data set [1] is “showed no activity which could be linked with a toxic effect”.

For `Cc1cc2nnc(C(=O)N[C@@H]3N=C(c4ccccc4)c4cccc5c4N(CC5)C3=O)c(C)n2n1` [Example 2Y, (3R)-4,7-Dimethyl-pyrazolo[5,1-c][1,2,4]triazine-3-carboxylic acid (4-oxo-1-phenyl-3,4,6,7-tetrahydro[1,4]diazepino[6,7,1-hi]indol-3-yl)amide], the “IC50 rolipram / IC50 example (PDE IV-inhibitory effect compared with rolipram)” value against PDE IV is on record as 1.4.

For `COc1cc2c3c(c1)C(c1ccccc1)=NC(NC(=O)c1cc4ccccc4cn1)C(=O)N3CC2` [Example 5, (3R,S)-Isoquinoline-3-carboxylic acid (9-methoxy-4-oxo-1-phenyl-3,4,6,7-tetrahydro[1,4]-diazepino(6,7,1-hilindol-3yl)amide], the “IC50 rolipram / IC50 example (PDE IV-inhibitory effect compared with rolipram)” value against PDE IV came out at 1.2.

Turning to `COc1cc2c3c(c1)C(c1ccccc1)=N[C@@H](NC(=O)c1cccc(Cl)c1)C(=O)N3CC2` [Example 6A, (3R)-3-Chloro-N-(9-methoxy-4-oxo-1-phenyl-3,4,6,7-tetrahydro[1,4]diazepino[6,7,1-hi]indol-3-yl)benzamide], the “IC50 rolipram / IC50 example (PDE IV-inhibitory effect compared with rolipram)” value at PDE IV is 2.7.

For `COc1cc2c3c(c1)C(c1ccccc1)=N[C@@H](NC(=O)c1ccc(Cl)cc1)C(=O)N3CC2` [Example 6B, (3R)-4-Chloro-N-(9-methoxv-4-oxo-1-phenyl-3,4,6,7-tetrahydro[1,4]diazepino[6,7,1-hi]indol-3-yl)benzamide], the “IC50 rolipram / IC50 example (PDE IV-inhibitory effect compared with rolipram)” value at PDE IV stood at 1.6.

For the compound `COc1cc2c3c(c1)C(c1ccccc1)=N[C@@H](NC(=O)c1ccncc1)C(=O)N3CC2` [Example 6C, (3R)-N-(9-methoxy-4-oxo-1-phenyl-3,4,6,7-tetrahydro[1,4]diaze-ino[6,7,1-hi]indol-3-yl)isonicotinamide], the “IC50 rolipram / IC50 example (PDE IV-inhibitory effect compared with rolipram)” value on PDE IV is listed as 1.6.

As to `COc1cc2c3c(c1)C(c1ccccc1)=N[C@@H](NC(=O)c1cnc4ccccc4c1)C(=O)N3CC2` [Example 6D, (3R)-Quinoline-3-carboxylic acid (9-methoxy-4-oxo-1-phenyl-3,4,6,7-tetrahydro[1,4]diazepino[6,7,1-hi]indol-3-yl)amide], the “IC50 rolipram / IC50 example (PDE IV-inhibitory effect compared with rolipram)” value at PDE IV was determined as 1.9.

Regarding `COc1cc2c3c(c1)C(c1ccccc1)=N[C@@H](NC(=O)c1ccc4ncccc4c1)C(=O)N3CC2` [Example 6E, (3R) -Quinoline-6-carboxylic acid (9-methoxy-4-oxo-1-phenyl-3,4,6,7-tetrahydro[1,4]diazepino[6,7,1-hi]indol-3-yl)amide], the “IC50 rolipram / IC50 example (PDE IV-inhibitory effect compared with rolipram)” value against PDE IV was found to be 1.9.

Regarding `COc1cc2c3c(c1)C(c1ccccc1)=N[C@@H](NC(=O)c1cc4ccccc4cn1)C(=O)N3CC2` [Example 6F, (3R)-Isoquinoline-3-carboxylic acid (9-methoxy-4-oxo-1-phenyl-3,4,6,7-tetrahydro[1,4]diazepino-[6,7,1-hi]indol-3-yl)amide], at PDE IV, the “IC50 rolipram / IC50 example (PDE IV-inhibitory effect compared with rolipram)” value is listed as 1.2.

As to `COc1cc2c3c(c1)C(c1ccccc1)=N[C@@H](NC(=O)c1nnc4cc(C)nn4c1C)C(=O)N3CC2` [Example 6G, (3R)-4.7-Dimethylpyrazolo[5,1-c[]1,2,4]-triazine-3-carboxylic acid (9-methoxy-4-oxo-1-phenyl-3,4,6,7-tetrahydro[1,4]diazepino[6,7,1-hi]indol-3-yl)-amide], the “IC50 rolipram / IC50 example (PDE IV-inhibitory effect compared with rolipram)” value on PDE IV was 2.2.

Turning to `COc1ccc(C2CNC(=O)C2)cc1OC1CCCC1` (stereo not drawn) [Rolipram], the “inhibition of the activity of inflammatory cells” value in the data set on inflammatory cells is recorded as “inhibits the activity of inflammatory cells in rodents”. In data set [2], the undesirable effects result was “nausea and vomiting”.

Consider `Cn1c(=O)c2[nH]cnc2n(C)c1=O` [Theophylline], for which the undesirable effects result in data set [2] is “nausea and headaches”. Moreover, the therapeutic index result in data set [2] (methylxanthines such as theophylline) is recorded as “low therapeutic index”. The “inhibition of several classes of phosphodiesterases” value in the data set on phosphodiesterase is “inhibit several classes of enzymes”.
